Here are results for one molecule from patent publication US10012641B2, “G-protein-coupled-receptor-22-transformed cell lines and methods of use thereof to identify binding compounds” (LIBRAMEN NATURALS INC., priority 2014, dated 2018).

“And” between values parts separate entries of the source, which are not always exact repeats. Equal entries are not always repeated. “Also recorded” adds a separate entry of the source.

Test [1] has as its target T1, GPCR22 (Rattus norvegicus, UniProt D4A3U0). Description: [3H]-guanosine binding to GPCR22 protein extracted from transfected S2 cells, competition with cold guanosine. The conditions noted are these: 10 nM [3H]-guanosine, 25° C., 75 min, FIG. 14. The arrangement: expressed in transfected cells; host or cells: Drosophila Schneider 2 (S2) cells, pMT-V5-HisA vector, CuSO4 induction. The protocol: The ability of GPCR22 receptor to bind to guanosine was assessed by performing competitive binding studies in the presence of cold guanosine. GPCR22 protein extracted from transfected […] cells were used in performing receptor-binding studies. The binding of [^3H]-guanosine (“hot” guanosine) to GPCR22 receptor was performed in triplicate in a final volume of 125 μl assay buffer (pH 7.4, 50 mM Tris-HCl, 1 mM EDTA, 5 mM MgCl2, 0.1 mM DTT, 0.1 mM PMSF, 100 mg/ml bacitracin and 5 mg/ml soybean trypsin inhibitor) containing 10 nM [^3H]-guanosine and the following concentrations of unlabeled guanosine (“cold” guanosine) (0.01 μM, 0.1 μM, 1.0 μM, 10 μM, 100 μM and 1 mM) and 50 ug of protein. The incubation of the GPCR22 receptor protein with ligands was carried out at 25° C. for 75 min. At the end of the incubation period, the unbound ligands were separated by vacuum filtration through Whatman GF/B filters. The bound ligand-protein was further washed 3 times with 5 ml of Tris-EDTA buffer, pH 7.4 (50 mM Tris-HCl, 1 mM EDTA). The radioactive filters were placed in plastic counting vials containing 4 ml of scintillation fluid, equilibrated overnight in a dark environment and counted the next day in a Beckman LS5000 liquid scintillation counter Model 1780. Non-specific binding was also calculated by the addition of excess guanosine (10 mM). […]

The subject of test [2] is GPCR22-transfected S2 cells. The test is described as follows: Actinomycin D-induced apoptosis, Caspase-3 flow cytometry, GPCR22-transfected S2 cells. The conditions noted are these: 100 μM guanosine before 1 μM actinomycin D; FIGS. 11a-d. Format: cell-based, Drosophila. As to the method: (§1) In order to determine whether guanosine produced any anti-apoptotic effects through a GPCR22-mediated mechanism, the effect of guanosine on apoptosis in GPCR22-transfected S2 cells was measured using flow cytometry techniques. Briefly, S2 cells were maintained in Schneider's Drosophila medium (GIBCO) supplemented with 10% heat-inactivated fetal calf serum, penicillin and streptomycin. For induction of apoptosis both receptor-transfected and non-transfected S2 cells were incubated in 1 μM actinomycin D (Sigma) for 6 hours at 25° C. Prior to the induction of apoptosis, to the S2 culture medium were either added 100 μM guanosine or the same amount of vehicle. After a 48 hr incubation with guanosine or vehicle, the cells were fixed with 4% PFA for fluorescent-immunostaining. The primary antibody Caspase-3 (10 μg/ml; R&D systems AF835) was incubated at room temperature for 1.5 hr and the secondary antibody (donkey anti rabbit Alexa488 (1:1800) was incubated at room temperature for 1 hr. After rinsing with PBS cells were re-suspend with “PBS+0.5% BSA” solution for flow cytometry reading using a 8 colour, […] (488 nm, 633 nm, 405 nm) FACS (Canto) machine.
A general note: Flow cytometry measures light scatter and fluorescence of single cells or particles in a stream.

Test [3] deals with non-transfected S2 cells. Description: Actinomycin D-induced apoptosis, Caspase-3 flow cytometry, non-transfected S2 cells. The conditions noted are these: 100 μM guanosine before 1 μM actinomycin D. It counts as cell-based, Drosophila. As to the method:
as §1

In another test the target is T2, GPCR22 (G1) receptor (Homo sapiens, UniProt Q99680, C425R).
T2 construct: A full length cDNA clone of human GPCR22 was provided by Origene Technologies; expressed in transfected cells; host or cells: 1321N1 human astrocytoma cells
T2 sequence (Q99680 whole entry C425R): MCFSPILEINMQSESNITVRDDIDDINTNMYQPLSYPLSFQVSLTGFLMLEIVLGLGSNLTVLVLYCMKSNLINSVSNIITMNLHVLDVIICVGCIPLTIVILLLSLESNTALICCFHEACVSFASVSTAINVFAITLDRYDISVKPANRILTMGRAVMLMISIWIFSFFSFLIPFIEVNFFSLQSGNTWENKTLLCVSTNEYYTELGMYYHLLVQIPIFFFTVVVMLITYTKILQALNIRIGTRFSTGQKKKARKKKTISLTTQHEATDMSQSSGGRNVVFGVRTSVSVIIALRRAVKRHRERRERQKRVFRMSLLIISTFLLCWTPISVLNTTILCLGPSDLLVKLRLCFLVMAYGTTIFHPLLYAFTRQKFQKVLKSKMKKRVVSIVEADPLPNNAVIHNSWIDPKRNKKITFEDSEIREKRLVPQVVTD
Description: Intracellular cAMP in 1321N1 cell line transfected with GPCR22 (G1) receptor. It counts as cell-based. As to conditions: increasing concentrations of guanosine, absence and presence of PTX (200 ng/ml, 16 h); FIG. 7e.

Test [4] deals with T1, GPCR22. The test is described as follows: Erk 1/2 and Akt phosphorylation by guanosine in cultured rat astrocytes treated with siRNA for GPCR22 (Western Blot). It counts as cell-based. The arrangement: endogenous in cells; host or cells: cultured rat (brain) astrocytes. The protocol:
(§2) Transient transfection of siRNAs for the rGPCR22 gene on rat cultured astrocytes and cell extracts were assayed for gene silencing 24 h after transfection was carried out. siRNA duplex specific for the rGPCR22 receptor were designed and chemically synthesized (www.Dharma.com), as well as their non specific control (NSC). Transfection of siRNAs for targeting endogenous genes was carried out using Oligofectamine (Invitrogen, Life Technologies) according to the manufacturer's instruction. Briefly, astrocytes at 60-70% confluence were cultured for 1 day in culture medium without antibiotics. 10 ml siRNA (20 mM) (Dharmacon research, Inc.) were diluted in 175 ml optimem for 5 min at room temperature. In the meantime, 3 ml oligofectamine was mixed in 15 ml optimem for 5 min. RNA interference was performed by mixing diluted oligofectamine and siRNA for 30 min at room temperature and was then added to the cells. The same scheme was performed on other samples using a siRNA-scrambled (NSP=non specific control). Cells were incubated at 37° C. for 24 hours. Twenty-four hours after transfection, the cells were lysed and assayed for gene silencing. The effect of GPCR22 silencing on MAPK and AKT phosphorylation, and cAMP assay was analysed.

Test [5] deals with T3, GPCR22 (Homo sapiens, UniProt Q99680, C425R).
T3 construct: A full length cDNA clone of human GPCR22 was provided by Origene Technologies; host or cells: 1321N1 human astrocytoma cells, pCMV vector, transient
T3 sequence (Q99680 whole entry C425R): as above
Description: Erk 1/2 and Akt phosphorylation by guanosine in 1321N1 human astrocytoma cells transfected with GPCR22 DNA (Western Blot). It counts as cell-based. The conditions noted are these: guanosine 300 μM, compared to non-GPCR22-transfected 1321N1 cells. As to the method:
A full length cDNA clone of human GPCR22 was provided by Origene Technologies. Transient expression in the 1321N1 cell line was performed using a pCMV expression vector. cDNA fragments present in an expression vector (pCMV) is located downstream of a transcriptional promoter capable of driving heterologous gene expression in a variety of mammalian cells. 1321N1 cell lines were transiently transfected with hGPCR22 cloned into pCMV expression vectors (Invitrogen). DNA transfection was performed by lipofection using Lipofectamine (Life Technologies). Twenty-four hours after transfection, the cells were lysed and assayed. RT-PCR analysis using GPCR22 forward: CTCATCTGCTGTTTCCACGA (SEQ. ID NO: 5) and GPCR22 reverse CGGATGTTAAGAGCCTGGAG (SEQ. ID NO: 6), was used to confirm the transfection of GPCR22 (G1) (labelled “1321N1 G1-pCMV Trans”) into 1321N1 cells as shown in FIG. 6a and evidenced by the band at 411 bp. Furthermore, the expression of GPCR22 (labelled “1321N1 G1-pCMV Trans”) in 1321N1 cells as compared to non-G1 transfected cells (labelled “1321N1”) was confirmed by Western Blot analysis using a rabbit polyclonal anti-GPCR22 antibody (NovateinBio, SH-A12465, MA, USA), as shown in FIG. 6b.
(In general: Immunoblotting shows a protein as a band on a membrane.)

For test [6], the system named is non-transfected S2 cells. The test is described as follows: Fluo-4 AM imaging of intracellular Ca2+ in non-transfected S2 cells. Format: cell-based, Drosophila. As to conditions: guanosine versus vehicle, FIGS. 12a, 12d. As to the method: Fluo-4 AM calcium imaging was used to visualize intracellular calcium concentration in the GPRC22-transfected and non-transfected S2 cells. A 2.5 mM stock solution of Fluo-4 Am dye (molecular Probes, Burlington, ON) was prepared in DMSO and 20% Pluronic F-127 and used to within a week. The S2 cell preparations were incubated with a final concentration of 5 μM fluo-4AM and 0.02% Pluronic F-127 in 1 ml S2 culture medium for 20 min at room temperature, then washed to allow for full de-esterification of AM esters. Imaging was carried out on an upright Nikon Eclipse FN-S2N upright fluorescence microscope using 10×/40× objectives with a filter to excite Fluo-4, a dye at 488 nm wavelength (peak excitation=494 nm and peak emission=516 nm) using a Lambda DG-4 illuminator (Sutter Instrument Co., Novato, Calif., USA). Images were captured using a Quantem 512SC camera with a frame rate of 5-10 frames per second and Nikon-NIS Elements, advanced research, imaging software. […] ROIs were selected free hand and encompassed the cell body to be analyzed. The ROIs were tracked and the average pixel intensity was measured in that region for the duration of the recording. […] Intracellular calcium concentration of S2 cells was monitored at room temperature. 20-30 S2 cells were calculated to determine the average overall fluorescence signal intracellular calcium concentration. […]

For test [7], the target named is T1, GPCR22. Description: Fluo-4 AM imaging of intracellular Ca2+ in GPCR22-transfected S2 cells. Format: cell-based. Set-up: expressed in transfected cells; host or cells: Drosophila Schneider 2 (S2) cells, pMT-V5-HisA vector, CuSO4 induction. The protocol:
Fluo-4 AM calcium imaging was used to visualize intracellular calcium concentration in the GPRC22-transfected and non-transfected S2 cells. A 2.5 mM stock solution of Fluo-4 Am dye (molecular Probes, Burlington, ON) was prepared in DMSO and 20% Pluronic F-127 and used to within a week. The S2 cell preparations were incubated with a final concentration of 5 μM fluo-4AM and 0.02% Pluronic F-127 in 1 ml S2 culture medium for 20 min at room temperature, then washed to allow for full de-esterification of AM esters. Imaging was carried out on an upright Nikon Eclipse FN-S2N upright fluorescence microscope using 10×/40× objectives with a filter to excite Fluo-4, a dye at 488 nm wavelength (peak excitation=494 nm and peak emission=516 nm) using a Lambda DG-4 illuminator (Sutter Instrument Co., Novato, Calif., USA). Images were captured using a Quantem 512SC camera with a frame rate of 5-10 frames per second and Nikon-NIS Elements, advanced research, imaging software. Intracellular calcium concentration was created in the Nikon-NIS elements program using regions of interest (ROIs) per each experiment. ROIs were selected free hand and encompassed the cell body to be analyzed. The ROIs were tracked and the average pixel intensity was measured in that region for the duration of the recording. These measurements were then exported to Excel and Clampfit for further analysis of frequency and amplitude. Intracellular calcium concentration of S2 cells was monitored at room temperature. 20-30 S2 cells were calculated to determine the average overall fluorescence signal intracellular calcium concentration. The fluorescence intensity was presented as the ratio F1/F0 in which the raw fluorescence intensity signals of a region of interest (ROI) was compared to the first fluorescence signal in that ROI throughout the recording. The Wilcoxon matched pairs t-test was used on two samples with equal variances to determine statistically significant differences at P=0.05. In each set of experiments, the exposure protocols for control and test conditions were identical.

For test [8], the target named is T1, GPCR22. The test is described as follows: Guanosine binding in rat astrocytes after inhibition of GPCR22 by siRNA. The conditions noted are these: astrocytes with GPCR22 inhibited by siRNA; data not shown. The arrangement: endogenous in cells; host or cells: cultured rat (brain) astrocytes. The protocol:
as §2, with “analysed. […]” for “analysed.”

T1 sequence (D4A3U0 whole entry): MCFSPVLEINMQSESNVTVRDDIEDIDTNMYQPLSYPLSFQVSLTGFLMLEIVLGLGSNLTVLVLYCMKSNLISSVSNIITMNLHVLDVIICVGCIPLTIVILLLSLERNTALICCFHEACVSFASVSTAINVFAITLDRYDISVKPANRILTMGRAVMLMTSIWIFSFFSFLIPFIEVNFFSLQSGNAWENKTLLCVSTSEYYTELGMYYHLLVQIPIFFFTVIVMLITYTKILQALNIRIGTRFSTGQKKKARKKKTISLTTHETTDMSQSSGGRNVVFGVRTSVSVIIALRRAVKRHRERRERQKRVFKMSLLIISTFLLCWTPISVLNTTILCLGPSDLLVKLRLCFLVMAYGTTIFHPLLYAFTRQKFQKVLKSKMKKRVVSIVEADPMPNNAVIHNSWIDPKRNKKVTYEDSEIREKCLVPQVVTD

The Kd is the constant that tells how readily two partners part at equilibrium. Read a high Kd as weaker binding. Take `Nc1nc2c(ncn2[C@@H]2O[C@H](CO)[C@@H](O)[C@H]2O)c(=O)[nH]1` [guanosine]: the Bmax on GPCR22 [1] is 1.05±0.12 pmol mg^−1 protein and 1.057 pmol mg^−1 protein. For the same molecule, the Kd at GPCR22 [1] (single high affinity binding site) worked out at 171 ± 39.8 nM. Moreover, the “protection from actinomycine-induced apoptotic cell death (Caspase-3)” value in test [2] was “protected transfected S2 cells from apoptotic cell death”; in the test on non-transfected S2 cells [3], “had no effect”. At GPCR22 (G1) receptor, the “intracellular cAMP levels” value is “increase intracellular cAMP levels”. In addition, the “activation of intracellular signaling by guanosine” value at GPCR22 [4] (astrocytes with GPCR22 inhibited by siRNA, data not shown) was “abolish”. For the same molecule, the “phosphorylation of Erk 1/2” value was “inhibited” on GPCR22 [4] (guanosine 300 μM, astrocytes treated with si-RNA for GPCR22, FIG. 7a); “resulted in phosphorylation of both Erk 1/2 and Akt” on GPCR22 [5] (FIG. 7c). Moreover, the “phosphorylation of Akt” value on GPCR22 [4] (guanosine 300 μM, astrocytes treated with si-RNA for GPCR22, FIG. 7b) is “inhibited”; on GPCR22 [5] (FIG. 7d), “resulted in phosphorylation of both Erk 1/2 and Akt”. Also, the “intracellular Ca^2+ level” value in the test with non-transfected S2 cells [6] is “does not induce; also recorded: had no effect”; on GPCR22 [7] (GPCR22-transfected S2 cells, FIGS. 12b, 12c, 15), “elevate intracellular Ca^2+ levels; also recorded: significantly increases intracellular calcium level”. Also, the “time of intracellular calcium increase after adding guanosine” value at GPCR22 [7] (GPCR22-transfected S2 cells) was at most 2 min. In addition, the “guanosine dose giving peak intracellular calcium increase” value on GPCR22 [7] (GPCR22-transfected S2 cells, low dose 0.1 μM to 10 μM, FIG. 13g) is 5 µM. Also, the “intracellular Ca^2+” value at GPCR22 [7] (guanosine 25 μM, time point 1 min, FIG. 13e) is given as “significant increase”. On GPCR22 [7] (guanosine 100 μM, imaging at 0, 0.5, 1 and 2 min, FIGS. 13a-d), the “intracellular Ca^2+ fluorescence” value was “fast and transient fluorescence increase”. The “intracellular Ca^2+ response across high doses” value on GPCR22 [7] (high dose guanosine 25 μM-400 μM, time point 1 min, FIG. 13f) is reported as “no significant difference”. Further, on GPCR22 [8], the guanosine binding entry is on record as “abolish”.
